Experimental data published in patent US8470380B2, “Polyphenol extraction process” (Coressence Limited, priority 2006, dated 2013).

What was measured:
[1] = Comparison of ethanol extraction with methanol (solubility of epicatechin); type: physicochemical; conditions: ethanol compared with methanol; implied by extraction data of Table 11
Protocol: A comparative extract using 1 g of apple powder and 10 ml methanol gave a figure of 4663 mg/Kg. In order to test if the low recovery figure above was due to low solubility of epicatechin in ethanol a series of tests were performed using 10, 20 and 30:1 w/w.

[2] = (−)-Epicatechin isomerisation test (heating of an epicatechin test solution, HPLC); type: physicochemical; conditions: for Epicatechin / Epicatechin % remain: 0.688 mg/ml epicatechin solution, nitrogen-flushed sealed vial; for Other % of start / Other: calculated from 100 − (epicatechin + catechin); for Other: unit assumed; for Catechin / Catechin % of start: formed from 0.688 mg/ml epicatechin
Protocol: In order to test the possibility that epicatechin was isomerising to catechin at higher temperatures, a test solution of 0.688 mg/ml epicatechin was produced and treated as follows: 950 μl of epicatechin was transferred to an auto sampler vial, which was flushed with nitrogen and sealed. The vial was then placed in an oven at a given temperature, for a set time period. The vial was then cooled, the seal removed and 50 μl of internal standard added before analysis. Tests were carried out at 50, 75, 100 and 125° C. for 15 and 30 minutes. Tests were not carried out at 150° C. as the vials are not capable of withstanding the pressure that would be generated.

## epicatechin
[1]
  solubility of epicatechin: lower solubility in ethanol than in methanol
[2]; 50° C. 15 min
  Epicatechin: 0.643 mg/mL
  Epicatechin % remain: 93.53%
  Other % of start: 5.40%
  Other: 0.037 mg/mL
  Catechin: 0.007 mg/mL
  Catechin % of start: 1.07%
[2]; 50° C. 30 min
  Epicatechin: 0.601 mg/mL
  Epicatechin % remain: 87.40%
  Other % of start: 10.79%
  Other: 0.074 mg/mL
  Catechin: 0.012 mg/mL
  Catechin % of start: 1.81%
[2]; 75° C. 15 min
  Epicatechin: 0.550 mg/mL
  Epicatechin % remain: 79.92%
  Other % of start: 10.59%
  Other: 0.073 mg/mL
  Catechin: 0.065 mg/mL
  Catechin % of start: 9.49%
[2]; 75° C. 30 min
  Epicatechin: 0.441 mg/mL
  Epicatechin % remain: 64.07%
  Other % of start: 19.65%
  Other: 0.135 mg/mL
  Catechin: 0.112 mg/mL
  Catechin % of start: 16.28%
[2]; 100° C. 15 min
  Epicatechin: 0.254 mg/mL
  Epicatechin % remain: 36.97%
  Other % of start: 16.36%
  Other: 0.113 mg/mL
  Catechin: 0.321 mg/mL
  Catechin % of start: 46.68%
[2]; 100° C. 30 min
  Epicatechin: 0.164 mg/mL
  Epicatechin % remain: 23.88%
  Other % of start: 26.07%
  Other: 0.179 mg/mL
  Catechin: 0.344 mg/mL
  Catechin % of start: 50.05%
[2]; 125° C. 15 min
  Epicatechin: 0.156 mg/mL
  Epicatechin % remain: 22.71%
  Other % of start: 27.94%
  Other: 0.192 mg/mL
  Catechin: 0.340 mg/mL
  Catechin % of start: 49.36%
[2]; 125° C. 30 min
  Epicatechin: 0.139 mg/mL
  Epicatechin % remain: 20.27%
  Other % of start: 36.13%
  Other: 0.249 mg/mL
  Catechin: 0.300 mg/mL
  Catechin % of start: 43.60%
[2]; temperatures above 100° C.
  isomerisation of (−)-epicatechin: rapid isomerisation
